Data taken from patent US20230330254A1 (Regeneron Pharmaceuticals, Inc., priority 2022, published 2023).
Where a SMILES comes first, the peptide text is derived from it. [ ]: non-standard residue; d: D form. The star is where a group is joined. Bip(2'-Et,4'-O(CH2)4NH2) = CCc1cc(OCCCCN)ccc1-c1ccc(C[C@H](N)C(=O)O)cc1; Nva(5-(3,5-Me2Ph)) = Cc1cc(C)cc(CCC[C@H](N)C(=O)O)c1; Ala(1H-tetrazol-5-yl) = N[C@@H](Cc1nnn[nH]1)C(=O)O; αMePhe(2-F) = C[C@](N)(Cc1ccccc1F)C(=O)O; Desaminohistidyl = O=C(CCc1c[nH]cn1)*

Assays:
[1] = Plasma stability of payloads and linker-payloads, human plasma; type: in vitro ADME; conditions: plasma, pH 7.4, tested time C (3 days), 2 μM, 37° C., read-out: Human plasma stability assay T½ (converted)
Experimental: The plasma stability of payloads and linker payloads of the disclosure were measured. For the assay, pooled frozen plasma (human, mouse or monkey) was thawed in cold water or a 37° C. water bath prior to experiment. Plasma was centrifuged at 4000 rpm for 5 min if any clots were observed, they were subsequently removed. If required, the pH was adjusted to 7.4±0.1. For the preparation of compounds and positive controls, a 1 mM intermediate solution was prepared by diluting 10 μL of their stock solution with 90 μL DMSO; a 1 mM intermediate solution of the positive control (Propantheline) was prepared by diluting 10 μL of its stock solution with 90 μL ultrapure water. […] 98 μL of plasma was spiked with 2 μL of dosing solution (100 μM) to achieve the final concentration of 2 μM in duplicate. Samples were then incubated at 37° C. in a water bath. […] At each time point, 400 μL of stop solution (200 ng/mL tolbutamide plus 200 ng/mL labetalol in 50% ACN/MeOH) was added to precipitate protein and mixed thoroughly. Sample plates were then centrifuged at 4,000 rpm for 10 min. An aliquot of supernatant (50 μL) was transferred from each well and mixed with 100 μL ultrapure water. The samples were then shaken at 800 rpm for approximately 10 min before submitting for LC-MS/MS analysis.

HEK293/CRE-Luc cells [2] = assay: Luciferase reporter assay, HEK293/CRE-Luc cells without hGLP1R (Example 11); type: cell-based, human; conditions: Table 11; Experiment A; no hGLP1R expression
From the text: (§1) To test the activity of GLP1R agonist payloads, GLP1R agonist linker-payloads (LPs), and anti-GLP1R antibody tethered drug conjugates (ATDCs) of the disclosure, a cell-based cAMP responsive luciferase reporter assay was developed. To generate the assay cell line, the firefly luciferase gene was placed under the control of a cAMP response element (CRE) located upstream of a minimal promoter and transfected into HEK293 cells and referred to herein as HEK293/CRE-Luc cells.
(§2) Three-fold serial dilutions of free payloads or LPs were prepared in 100% DMSO, transferred to fresh assay media, and added to the cells at a final constant DMSO concentration of 0.2%. The last well in the plate served as a blank control containing only the assay media and 0.2% DMSO (untreated well) and was plotted as a continuation of the 3-fold serial dilution. Four to six hours later, luciferase activity was determined after the addition of One-Glo™ reagent (Promega, Cat #E6130) to each well. Relative light units (RLUs) were measured on an Envision luminometer (PerkinElmer) and EC50 values were determined using a four-parameter logistic equation over a 12-point dose response curve (GraphPad Prism). The signal to noise (S/N) was determined by taking the ratio of the highest RLU on the dose response curve to the RLU in the untreated wells.

HEK293/CRE-Luc cells [3] = assay: Luciferase reporter assay, HEK293/CRE-Luc cells without GLP1R (Example 17); type: cell-based, human; conditions: HEK293/CRE-Luc cells without hGLP1R, payloads and linker-payloads; for EC50: read-out: EC50
Summary of the method: (§3)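 HEK293 cells carrying a CRE-driven firefly luciferase reporter were exposed to 3-fold serial dilutions of payloads or linker-payloads (12 points, 0.2% DMSO final) for 4–6 h, then luminescence was read. EC50 came from a four-parameter logistic fit; S/N is top RLU over untreated wells, and relative potency and S/N are referenced to M2361.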

human GLP1R [4] = biological target: T1, human GLP1R (Homo sapiens, UniProt P43220); assay: Luciferase reporter assay, HEK293/CRE-Luc/hGLP1R cells (Example 11); type: cell-based; parameters: engineered to express full-length human GLP1R, cynomolgus GLP1R; expressed in transfected cells; host or cells: HEK293/CRE-Luc; conditions: Table 11; Experiment A
T1 sequence (P43220 24-463): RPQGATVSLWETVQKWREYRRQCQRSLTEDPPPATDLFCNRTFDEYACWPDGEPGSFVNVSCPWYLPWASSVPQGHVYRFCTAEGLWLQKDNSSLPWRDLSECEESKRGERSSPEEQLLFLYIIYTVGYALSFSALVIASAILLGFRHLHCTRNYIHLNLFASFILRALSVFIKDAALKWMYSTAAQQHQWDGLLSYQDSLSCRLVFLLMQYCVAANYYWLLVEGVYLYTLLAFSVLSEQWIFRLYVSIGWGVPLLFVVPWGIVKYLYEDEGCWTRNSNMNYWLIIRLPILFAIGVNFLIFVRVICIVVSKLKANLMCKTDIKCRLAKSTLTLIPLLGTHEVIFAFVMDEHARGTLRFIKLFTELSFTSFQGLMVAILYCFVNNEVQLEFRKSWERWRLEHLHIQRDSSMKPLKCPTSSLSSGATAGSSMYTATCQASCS
From the text: as §1, §2
GLP1R agonist linker payloads were conjugated to anti-hGLP1R antibodies via N-terminal heavy or light chain Q tags. Several resulting anti-GLP1R antibody tethered drug conjugates (ATDCs) were tested for activity in the HEK293/CRE-Luc/hGLP1R reporter assay as described above for the free GLP1R payload and linker-payload agonists.

human GLP1R [5] = biological target: T1, human GLP1R; assay: Luciferase reporter assay, HEK293/CRE-Luc/hGLP1R (Example 17); type: cell-based; parameters: engineered to express full-length human GLP1R, cynomolgus GLP1R; expressed in transfected cells; host or cells: HEK293/CRE-Luc; conditions: HEK293/CRE-Luc/hGLP1R; for S/N: highest RLU / RLU of untreated wells; for Relative Potency (% M2361 EC50) / Relative Signal:Noise (% M2361): relative to M2361 of the same experiment
Summary of the method: as §3

human GLP1R [6] = biological target: T1, human GLP1R; assay: Human GLP1R cAMP accumulation assay; type: cell-based; parameters: HEK293 cells over-expressing full length human GLP-1R were utilized; expressed in transfected cells; host or cells: HEK293 (HEK293/hGLP1R); conditions: HEK293/hGLP1R cells; Table 4; read-out: cAMP EC50
Experimental: 8.1 Human GLP1R cAMP Accumulation Assay (Cyclic AMP Determination)
The functional activity of the test compounds for agonizing GLP1R were evaluated using a cell-based assay. For the assay, HEK293 cells over-expressing full length human GLP-1R were utilized and the downstream cAMP accumulation was assessed as a measure of human GLP-1R stimulation. […] Diluted compounds were transferred to OptiPlates (100 nL/well) using an Echo liquid handler. HEK293/hGLP1R cells were thawed in 37° C. water-bath, washed 2 times with HBSS and re-suspended in assay buffer (HBSS+5 mM HEPES+500 μM IBMX+0.1% BSA). […] After centrifugation, the assay plate was incubated at 23° C. for 30 min. The reaction was terminated by adding 10 μL of lysis buffer containing D2-cAMP and a cAMP-antibody from the cyclic AMP immunoassay kit (Cisbio, Cat #62AM4PEJ). […] The levels of cAMP per well were calculated using a standard curve generated by GraphPad Prism. Percent activity was calculated according to the formula (% Activity=100%*(cAMP level-LC)/(HC-LC)). EC50 values were fitted from a four-parameter logistic equation over a 10-point response curve (GraphPad Prism).

| HEK293/CRE-LUC/hGLP1R Relative Potency (% P8 EC50) (human GLP1R [4]) | HEK293/CRE-LUC/hGLP1R S/N (human GLP1R [4]) | EC50 (human GLP1R [4]) | SMILES | half-life at 2 µM [1] | EC50 (HEK293/CRE-Luc cells [2]) | HEK293/CRE-LUC S/N (HEK293/CRE-Luc cells [2]) | S/N (HEK293/CRE-Luc cells [3]) | EC50 (HEK293/CRE-Luc cells [3]) | S/N (human GLP1R [5]) | Relative Potency (% M2361 EC50) (human GLP1R [5]) | Relative Signal:Noise (% M2361) (human GLP1R [5]) | EC50 (human GLP1R [6]) | EC50 (human GLP1R [5]; payloads and linker-payloads, experiments A-E, M2361 repeated in each, read-out: EC50) |
| --- | --- | --- | --- | --- | --- | --- | --- | --- | --- | --- | --- | --- | --- |
|  |  |  | CCc1cc(OCCCCn2cc(COCCOCCOCCOCCOCCOCCOCCOCCNC(=O)CCC(=O)N3Cc4ccccc4-c4nn[nH]c4-c4ccccc43)nn2)ccc1-c1ccc(C[C@H](NC(=O)[C@H](CC(=O)O)NC(=O)[C@H](CO)NC(=O)[C@@H](NC(=O)C(C)(Cc2ccccc2F)NC(=O)[C@@H](NC(=O)CNC(=O)[C@H](Cc2nn[nH]n2)NC(=O)C(C)(C)C(=O)NCCc2cnc[nH]2)[C@@H](C)O)[C@@H](C)O)C(=O)N[C@@H](CCCc2cc(C)cc(C)c2)C(N)=O)cc1 (some centres unmarked) [LP28, triazole-DIBAC-suc-PEG8-triazole-P8] | > 7.23 days |  |  |  |  |  |  |  |  |  |
| 46.5% | 76.4 |  | CCc1cc(OCCCCN)ccc1-c1ccc(C[C@H](NC(=O)[C@H](CC(=O)O)NC(=O)[C@H](CO)NC(=O)[C@@H](NC(=O)[C@](C)(Cc2ccccc2F)NC(=O)[C@@H](NC(=O)CNC(=O)[C@H](Cc2nn[nH]n2)NC(=O)CNC(=O)CCc2cnc[nH]2)[C@@H](C)O)[C@@H](C)O)C(=O)N[C@@H](CCCc2cc(C)cc(C)c2)C(N)=O)cc1 [P12] (Desaminohistidyl-G[Ala(1H-tetrazol-5-yl)]GT[αMePhe(2-F)]TSD[Bip(2'-Et,4'-O(CH2)4NH2)][Nva(5-(3,5-Me2Ph))]-NH2) |  | > 200 nM | 1.2 | 1.2 | > 200 nM | 76.4 | 46.5% | 116.2% |  |  |
| 40.3% | 67.8 | 0.0132 nM | CCc1cc(OCCCCN)ccc1-c1ccc(C[C@H](NC(=O)[C@H](CC(=O)O)NC(=O)[C@H](CO)NC(=O)[C@@H](NC(=O)[C@](C)(Cc2ccccc2F)NC(=O)[C@@H](NC(=O)CNC(=O)[C@H](Cc2nn[nH]n2)NC(=O)[C@@]2(C)CCN(CCc3cnc[nH]3)C2=O)[C@@H](C)O)[C@@H](C)O)C(=O)N[C@@H](CCCc2cc(C)cc(C)c2)C(N)=O)cc1 [P15-R] |  | > 200 nM | 1.1 |  |  |  |  |  | 0.117 nM |  |
|  |  |  | CCc1cc(OCCCCN)ccc1-c1ccc(C[C@H](NC(=O)[C@H](CC(=O)O)NC(=O)[C@H](CO)NC(=O)[C@@H](NC(=O)[C@](C)(Cc2ccccc2F)NC(=O)[C@@H](NC(=O)CNC(=O)[C@H](Cc2nn[nH]n2)NC(=O)C(C)(C)C(=O)NCCc2cnc[nH]2)[C@@H](C)O)[C@@H](C)O)C(=O)Nc2ccccc2)cc1 [P22] |  |  |  | 1.5 | > 200 nM | 48.9 | 1.2% | 74.4% | 0.603 nM | 0.44 nM |
